Results on two substances are retold here after patent US20260285932A1, “PEPTIDE TYROSINE-TYROSINE ANALOG AND USE THEREOF” (THE UNITED BIO-TECHNOLOGY (HENGQIN) CO., LTD., priority 2023, published 2026).

Series [1] addresses T1, recombinant human NPY2 receptor (Homo sapiens, UniProt P49146).
T1 construct: expressed in transfected cells; host or cells: HEK 293
T1 sequence (P49146 1-381): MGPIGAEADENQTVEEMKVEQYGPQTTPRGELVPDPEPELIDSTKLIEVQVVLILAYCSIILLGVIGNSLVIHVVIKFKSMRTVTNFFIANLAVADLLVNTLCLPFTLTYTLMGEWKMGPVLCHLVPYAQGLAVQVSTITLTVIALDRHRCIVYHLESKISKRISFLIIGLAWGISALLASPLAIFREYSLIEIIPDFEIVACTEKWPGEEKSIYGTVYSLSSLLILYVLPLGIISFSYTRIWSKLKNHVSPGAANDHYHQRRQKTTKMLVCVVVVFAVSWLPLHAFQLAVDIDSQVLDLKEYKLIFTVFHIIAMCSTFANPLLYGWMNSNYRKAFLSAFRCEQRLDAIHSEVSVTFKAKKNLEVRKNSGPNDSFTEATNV
Put plainly: cAMP assay, in vitro functional activity on NPY2 receptors. As to conditions: inhibition of Forskolin-induced cAMP in HEK 293 cells overexpressing hNPY2R; average, at least 3 independent tests. The series is classed as cell-based. The method, then: 2) Preparation of cells: the cultured cells were collected into a 15 mL sterile centrifuge tube, and centrifuged at 1000 rpm for 5 minutes, with the supernatant being discarded. 10 mL of 1×PBS was added, mixed gently, and centrifuged at 1000 rpm for 5 minutes, with the supernatant being discarded.
4) According to the arrangement order of Map analogues, 100 nL of prepared analogues were added to a 384-well cell reaction plate using Echo. After addition, they were centrifuged at 1000 rpm for 1 minute.
5) 5 μL of 2 μM Forskolin (prepared with detection buffer) was added to a 384-well cell reaction plate using Multidrop Combi and centrifuged at 1000 rpm for 1 minute. 5 μL of detection buffer containing cells was added to a 384-well reaction plate, ensuring a cell count of 3000 cells per well.
6) 10 μL cAMP detection reagent solution (1×cell lysis buffer 9.5 mL, 1×D2-cAMP solution, 1×cAMP-antibody) was added to the corresponding wells of the cell reaction plate using Multidrop Combi. It was covered with a lid and incubated at room temperature in the dark for 1 hour.
7) After incubation for 1 hour, it was placed in an EnVision microplate reader for measurement.

Series [2] concerns the target T2, human NPY1 receptor (hNPY1R) (Homo sapiens, UniProt P25929).
T2 construct: expressed in transfected cells
T2 sequence (P25929 1-384): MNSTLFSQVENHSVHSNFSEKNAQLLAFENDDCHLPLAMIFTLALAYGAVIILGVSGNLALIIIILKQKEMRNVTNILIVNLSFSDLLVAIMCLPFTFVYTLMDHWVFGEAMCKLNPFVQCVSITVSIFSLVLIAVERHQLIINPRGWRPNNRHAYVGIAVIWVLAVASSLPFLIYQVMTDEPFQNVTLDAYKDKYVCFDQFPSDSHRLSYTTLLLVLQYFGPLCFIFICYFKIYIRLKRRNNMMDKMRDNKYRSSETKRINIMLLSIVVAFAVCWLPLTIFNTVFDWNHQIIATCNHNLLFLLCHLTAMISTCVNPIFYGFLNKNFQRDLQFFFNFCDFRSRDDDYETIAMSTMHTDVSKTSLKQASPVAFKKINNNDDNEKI
Nature of the series: calcium flux (FLIPR) assay, functional activity on human NPY1 receptor. As to conditions: average, at least 3 independent tests. The series is classed as cell-based.
Experimental: (§3) 1) Preheated the culture medium, 1×DPBS and 0.05% trypsin EDTA in a 37° C. water bath for more than 30 minutes in advance, and ready for use.
(§4) 3) Cultured cells were taken out from the incubator, added with 1×DPBS, incubated for a moment, suctioned to remove DPBS, added with an appropriate amount of 0.05% trypsin-EDTA for cell digestion, digestion terminated with 10% FBS medium, and dispersed the cells.
(§5) 4) The dispersed cells were transferred into a 50 mL centrifuge tube using a pipette, centrifuged at 1000 rpm for 5 minutes, resuspended in culture medium, dispersed, and counted.
(§6) 5) The cells were diluted with culture medium to 1×10^6 cells/mL, and inoculated at a volume of 20 μL/well of cells onto 384-well poly-Lysine-coated cell plates.
(§7) 6) The cells were incubated overnight at 37° C. in an incubator with 5% CO2. […]
(§8) 4) The calcium ion activation rate was calculated for each well: % Activity=(signal value of sample well-average signal value of low-signal control well)/(average signal value of high-signal control well-average signal value of low-signal control well). Using the logarithm of the concentration of analogues as the horizontal axis and the activation rate of calcium ion fluorescence signal as the vertical axis, the “Nonlinear regression (curve fit)-log (antigen) vs. response Variable slope” model in GraphPad Prism 5.0 was used for fitting to calculate the EC50 of the sample.

A short description of series [3]: food intake and body weight of normal mice after a single subcutaneous injection. As to conditions: C57BL/6 mice, over 3 days; for Body weight changes: vs baseline. The series is classed as in vivo. The method, then:
6-8 weeks old male C57BL/6 mice were fed in animal feeding rooms with strictly controlled environmental conditions, the temperature in the feeding room was maintained at 20° C.-24° C. and the humidity was maintained at 30%-70%. The light cycle in the animal feeding room was 12 hours (starting at 7:00 am and ending at 7:00 pm). During the experiment, animals were kept in single cages and toys were provided in each cage. During the experiment, animals were free to consume food (growth/reproduction feed for mice and rats) and water.
Body weight without fasting and initial food weight before administration were recorded, and the animals were administered with a single subcutaneous injection, and the daily body weight and food intake weight were recorded for 3 days after administration. The activity, water intake, diet, and body weight changes of animals were observed every day. The changes in body weight and food intake weight were calculated compared to the baseline levels of each group (the initial body weight and food intake weight before administration), with body weight changes expressed as percentages (baseline was 100%).

A short description of series [4]: pharmacokinetics in SD rats. As to conditions: male rat, 0.492 mg/kg single s.c., plasma. Type of series: in vivo. The method, then:
(§1) Blood samples were collected from each animal at each time point after administration, and the blood samples were centrifuged at around 4° C., 3200 g, for 10 minutes. Plasma was collected separately, transferred to pre-labeled 96-well plates or polypropylene tubes, speedily frozen on dry ice, and stored at −60° C. or lower until LC-MS/MS analysis.
(§2) LC-MS/MS method was adopted to determine the concentration of the measured analogues in blood samples. The data on the changes in plasma concentration over time were plotted into a chart and analyzed using non partitioned methods with Phoenix WinNonlin 6.3 software program. Relevant PK parameters were calculated based on the administration routes.
The plasma pharmacokinetics of PYY analogues in male SD rats were evaluated after a single subcutaneous administration of 0.492 mg/kg Analogue 3. Blood samples were collected from 3 rats at each time point after administration for 0.5 h, 1 h, 2 h, 4 h, 8 h, 12 h, 16 h, 24 h, 48 h, 72 h, 96 h, 120 h, 144 h, 168 h, extending to 168 h. Due to the use of discontinuous sampling to evaluate the kinetics of PYY analogues in rats, the pharmacokinetic parameters of Analogue 3 after a single subcutaneous administration of 0.492 mg/kg were listed using average concentration-time data.

Series [5] is described as follows: pharmacokinetics in crab-eating macaques. Type of series: in vivo. To be noted: male crab-eating macaque, 0.246 mg/kg single s.c., plasma. The method, then:
as §1, §2
The plasma pharmacokinetics of PYY analogues in male crab-eating macaques were evaluated after a single subcutaneous administration of 0.246 mg/kg Analogue 3. Blood samples were collected from 2 crab-eating macaques at each time point after administration for 1 h, 2 h, 4 h, 8 h, 12 h, 24 h, 48 h, 72 h, 96 h, 120 h, 144 h, 168 h, 192 h, 240 h, 288 h, 336 h, 408 h, 504 h, extending to 504 hours. Due to the use of discontinuous sampling to evaluate the kinetics of PYY analogues in crab-eating macaques, the pharmacokinetic parameters of Analogue 3 after a single subcutaneous administration of 0.246 mg/kg were listed using average concentration-time data.

The target in series [6] is T3, human Y5 receptor (hNPY5R) (Homo sapiens, UniProt Q15761).
T3 sequence (Q15761 1-445): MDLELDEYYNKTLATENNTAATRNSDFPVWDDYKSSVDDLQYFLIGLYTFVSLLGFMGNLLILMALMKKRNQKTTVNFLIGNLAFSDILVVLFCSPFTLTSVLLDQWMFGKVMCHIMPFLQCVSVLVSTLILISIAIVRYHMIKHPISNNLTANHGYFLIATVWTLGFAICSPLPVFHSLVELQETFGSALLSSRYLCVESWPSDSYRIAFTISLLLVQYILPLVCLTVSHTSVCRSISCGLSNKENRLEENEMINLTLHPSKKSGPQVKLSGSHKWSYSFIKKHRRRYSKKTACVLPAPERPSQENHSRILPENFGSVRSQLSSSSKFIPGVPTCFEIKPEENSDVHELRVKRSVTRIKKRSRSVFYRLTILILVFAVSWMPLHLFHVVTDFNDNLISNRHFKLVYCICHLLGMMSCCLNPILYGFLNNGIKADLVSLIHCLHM
Nature of the series: calcium flux (FLIPR) assay, functional activity on human Y5 receptor. As to conditions: read-out: hNPY5R EC50, average, at least 3 independent tests.
Experimental: as §3, §4, §5, §6, §7, §8

As for “PKPEK(AEEAc-γGlu-CO(CH2)16COOH)PE-Aib-DASPEEWQRYY-Aib-ELRHYLNWLTRQRY-NH2 [Analogue 3]”, the EC50 in series [1] is 0.037 nM; in series [2], over 50 nM; in series [6], 92.7 nM. Moreover, the “Accumulated food intake weight” value in series [3] (3 nmol/kg single s.c.) worked out at 9.73 ± 0.48 g; in series [3] (10 nmol/kg single s.c.) it was 8.24 ± 0.27 g; in series [3] (30 nmol/kg single s.c.), 6.24 ± 0.26 g. The figures for the Body weight changes in series [3] (3 nmol/kg single s.c.), in series [3] (10 nmol/kg single s.c.) and in series [3] (30 nmol/kg single s.c.) were −1.04% ± 2.02%, −0.69% ± 1.64% and −6.52% ± 1.37%, respectively. Also, the results for the AUCinf in series [4] and in series [5] were 79.609 µg·h/mL and 336.537 µg·h/mL, respectively. Moreover, the Cmax was found to be 1941 ng/mL in series [4] and 1775 ng/mL in series [5]. Further, the T1/2 in series [4] came out at 24.7 h; in series [5] it was 125.5 h. The Tmax in series [4] is on record as 13.3 h; in series [5], 12 h.

In the case of “PKPEK(AEEAc-γGlu-CO(CH2)16COOH)PEED-Aib-SPEEWQRYY-Aib-SLRHYLNWLTRQRY-NH2 [Analogue 1]”, the figures for the EC50 in series [1] and in series [2] were 0.041 nM and over 50 nM, respectively. Besides, the “Accumulated food intake weight” value turned out to be 11.54 ± 0.40 g in series [3] (3 nmol/kg single s.c.), 9.29 ± 0.27 g in series [3] (10 nmol/kg single s.c.) and 8.10 ± 0.26 g in series [3] (30 nmol/kg single s.c.). Moreover, the figures for the Body weight changes in series [3] (3 nmol/kg single s.c.), in series [3] (10 nmol/kg single s.c.) and in series [3] (30 nmol/kg single s.c.) were 2.32% ± 2.53%, 1.23% ± 2.92% and 0.51% ± 2.56%, respectively.
